# From patent publication US8211831B2, “Method to use a synergistic composition” (Riceco, LLC, priority 2005, dated 2012)
# Key:
# Type in all cases: in vivo
# Sprangletop = assay: small plot test in Arkansas, weedy rice plot (Example 7); details: propanil applied alone, all rates (5, 4, 3 pounds/acre); 12 days after application; 1 to 6 inch Sprangletop
# Text: (§1) The chemical rates in pounds/acre were:
# (§2) The following observations were made 12 days after application.
# [1] = test system: broadleaf weeds and sedges; assay: as above; details: 12 days after application
# Text: as §1, §2
# Barnyard grass = assay: commercial field application by air in Arkansas, half a weedy rice field (Example 8); details: only propanil (Super Wham) at 4 pounds; 7 days after application
# [2] = test system: broadleaf weeds and sedges; assay: small plot test in Arkansas, weedy rice plot (Example 1); details: Clincher SF alone, 15 fluid ounces/acre (0.279 pounds ai/acre)
# Text: (§3) Note that the label recommended rate for Clincher® (cyhalofop) SF for controlling grasses in the 2-3 leaf stage is 13.5 fluid ounces/acre (0.251 pounds cyhalofop/acre).
# grasses = assay: as above; details: Clincher SF alone, 15 fluid ounces/acre (0.279 pounds ai/acre); 2-3 leaf barnyard grass
# Text: as §3
# [3] = test system: barnyard grass and Sprangletop (two grass species); assay: small plot test in Arkansas, weedy rice plot (Example 7); details: cyhalofop alone, high labeled rate 0.279 pounds/acre; 12 days after application
# Text: as §1, §2
Structure (SMILES),Sprangletop control (Sprangletop),"broadleaf and sedge control ([1]; all rates of propanil applied (5, 4, 3 pounds/acre))",barnyard grass control (Barnyard grass),control of the broadleaf weeds and sedges present at the time of application [2] [%],control of the grasses (grasses),grass control [3],"controlling broadleaf weeds and sedges ([1]; cyhalofop alone, high labeled rate 0.279 pounds/acre)"
CCC(=O)Nc1ccc(Cl)c(Cl)c1 [propanil],lack of Sprangletop control,excellent broadleaf and sedge control,poor barnyard grass control,–,–,–,–
C[C@@H](Oc1ccc(Oc2ccc(C#N)cc2F)cc1)C(=O)O [cyhalofop],–,–,–,0,controlled the grasses,excellent grass control,weakness in controlling broadleaf weeds and sedges
